In US8173689B2 (Novartis AG, priority 2006, dated 2012):
Where two headings read alike, the source gives them in different places.

What was measured:
[1] = biological target: T1, cytoplasmic domain of the human CSF-1R (Homo sapiens, UniProt P07333); assay: In vitro kinase assay for colony stimulating factor-1 receptor (AlphaScreen); type: biochemical; conditions: tested at about 1 μM, read-out: CSF-1R percent inhibition
T1 construct: Recombinant protein corresponding to the cytoplasmic domain of the human CSF-1R; purchased Invitrogen Corporation, Carlsbad, Calif; PV3249
T1 sequence (P07333 539-972 limits assumed): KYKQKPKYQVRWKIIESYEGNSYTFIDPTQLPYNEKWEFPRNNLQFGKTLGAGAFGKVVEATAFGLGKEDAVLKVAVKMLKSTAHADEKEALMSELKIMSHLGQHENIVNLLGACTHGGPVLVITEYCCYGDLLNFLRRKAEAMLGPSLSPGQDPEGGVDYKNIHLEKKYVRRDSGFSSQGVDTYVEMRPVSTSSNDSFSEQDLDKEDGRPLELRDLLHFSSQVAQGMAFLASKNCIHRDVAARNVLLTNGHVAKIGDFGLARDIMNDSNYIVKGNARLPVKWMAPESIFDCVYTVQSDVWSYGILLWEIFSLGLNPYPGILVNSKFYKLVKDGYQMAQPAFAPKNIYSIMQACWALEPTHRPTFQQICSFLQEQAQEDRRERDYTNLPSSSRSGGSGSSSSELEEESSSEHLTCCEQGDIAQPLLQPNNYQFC
Procedure, shortened: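 Kinase reaction used 4 nM recombinant cytoplasmic domain at 1 μM ATP in 50 mM Hepes pH 7.5 with 5 mM MgCl2, 10 mM MnCl2, 0.1% BSA, 1.0 mM DTT and 0.01% Tween 80. Compounds were serially diluted 3-fold from 25 μM. Phosphopeptide was detected by AlphaScreen, PT66 anti-phosphotyrosine acceptor plus streptavidin donor beads, read after overnight incubation.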

[2] = biological target: T2, full-length human CSF-1R receptor (Homo sapiens, UniProt P07333); assay: In vitro inhibition of CSF-1R receptor tyrosine phosphorylation in transfected HEK293H cells stimulated with MCSF; type: cell-based; conditions: HEK293-H, tested at about 1 μM, read-out: pCSF1R percent inhibition
T2 construct: transfected with the full-length human CSF-1R receptor cloned in house; expressed in transfected cells; host or cells: HEK293H (Invitrogen Cat. #11631017)
T2 sequence (P07333 20-972): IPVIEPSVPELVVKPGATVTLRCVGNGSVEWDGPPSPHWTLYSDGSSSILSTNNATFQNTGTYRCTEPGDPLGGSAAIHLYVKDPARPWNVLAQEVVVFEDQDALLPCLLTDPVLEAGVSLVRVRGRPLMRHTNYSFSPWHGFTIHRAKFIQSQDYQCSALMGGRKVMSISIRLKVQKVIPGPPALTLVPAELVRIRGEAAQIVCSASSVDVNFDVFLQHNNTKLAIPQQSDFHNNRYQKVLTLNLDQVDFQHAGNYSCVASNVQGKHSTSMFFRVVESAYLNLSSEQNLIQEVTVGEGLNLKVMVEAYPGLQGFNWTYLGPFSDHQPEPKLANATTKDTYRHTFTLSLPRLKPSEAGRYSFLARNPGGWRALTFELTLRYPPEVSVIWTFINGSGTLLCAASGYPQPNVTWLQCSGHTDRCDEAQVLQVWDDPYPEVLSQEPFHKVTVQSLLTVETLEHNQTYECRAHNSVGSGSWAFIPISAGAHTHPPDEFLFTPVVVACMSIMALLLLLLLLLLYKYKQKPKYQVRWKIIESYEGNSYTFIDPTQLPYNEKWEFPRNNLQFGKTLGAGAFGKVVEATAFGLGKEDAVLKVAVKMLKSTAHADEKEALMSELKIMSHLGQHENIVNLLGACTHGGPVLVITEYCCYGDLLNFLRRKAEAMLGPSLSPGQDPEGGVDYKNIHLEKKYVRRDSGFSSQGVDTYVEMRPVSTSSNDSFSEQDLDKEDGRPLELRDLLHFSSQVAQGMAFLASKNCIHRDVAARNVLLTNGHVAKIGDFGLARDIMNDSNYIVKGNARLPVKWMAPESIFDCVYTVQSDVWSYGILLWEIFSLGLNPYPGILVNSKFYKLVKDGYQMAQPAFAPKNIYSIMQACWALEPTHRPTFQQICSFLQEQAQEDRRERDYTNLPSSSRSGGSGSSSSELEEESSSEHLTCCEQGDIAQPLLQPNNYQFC
Procedure: The lysate was then transferred to total CSF-1R antibody coated 96-well plates that had already been blocked with 3% Blocker A from Mesoscale discovery (MSD) for 2 hours and washed afterwards. Lysates were incubated overnight at 4° C. and the plates were then washed 4× with MSD Tris Wash Buffer. […] The plates were read on the Sector 6000 instrument (MSD). Raw data was imported in Abase and EC50s calculated with XL-fit data analysis software.

kinase domain of PDGFRβ = biological target: T3, kinase domain of PDGFRβ (Homo sapiens, UniProt P09619); assay: Inhibition of PDGFRb kinase signaling in an in vitro biochemical assay (alphascreen); conditions: tested at about 1 μM, read-out: PDGFRβ percent inhibition
T3 construct: The kinase domain of PDGFRβ was assayed in 50 mM Hepes; purchased Invitrogen P3082
T3 sequence (P09619 600-962 limits assumed): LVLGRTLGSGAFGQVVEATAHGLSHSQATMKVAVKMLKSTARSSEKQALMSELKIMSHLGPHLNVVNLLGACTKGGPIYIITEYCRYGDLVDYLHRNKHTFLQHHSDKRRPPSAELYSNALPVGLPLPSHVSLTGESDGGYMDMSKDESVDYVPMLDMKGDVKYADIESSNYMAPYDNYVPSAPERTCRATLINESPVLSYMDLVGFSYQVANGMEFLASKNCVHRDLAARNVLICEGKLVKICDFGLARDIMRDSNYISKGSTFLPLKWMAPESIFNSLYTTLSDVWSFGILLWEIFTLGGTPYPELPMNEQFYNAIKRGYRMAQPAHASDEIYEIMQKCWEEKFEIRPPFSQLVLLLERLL

kinase domain of cKIT = biological target: T4, kinase domain of cKIT (Homo sapiens, UniProt P10721); assay: Inhibition of cKIT kinase signaling in an in vitro biochemical assay (alphascreen); conditions: tested at about 1 μM, read-out: cKit percent inhibition
T4 construct: The kinase domain of cKIT was assayed in 50 mM Hepes; purchased Upstate 14-559
T4 sequence (P10721 589-937 limits assumed): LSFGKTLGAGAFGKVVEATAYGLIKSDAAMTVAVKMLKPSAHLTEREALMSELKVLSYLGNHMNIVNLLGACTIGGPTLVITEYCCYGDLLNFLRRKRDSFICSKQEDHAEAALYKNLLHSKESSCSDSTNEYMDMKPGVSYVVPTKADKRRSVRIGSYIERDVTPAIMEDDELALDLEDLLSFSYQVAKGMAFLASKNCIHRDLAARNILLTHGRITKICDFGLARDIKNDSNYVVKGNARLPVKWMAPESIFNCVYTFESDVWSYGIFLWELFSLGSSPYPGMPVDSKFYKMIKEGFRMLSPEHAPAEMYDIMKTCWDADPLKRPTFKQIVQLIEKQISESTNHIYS

[3] = test system: MNFS60 (murine AML cells); assay: Cell viability assay in MCSF dependent MNFS60 cells (Cell Titer Glo); type: cell-based; conditions: Mus musculus, tested at about 1 μM, read-out: M-NFS-60 CP percent inhibition
Procedure, shortened: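 3-fold DMSO dilution series (500× stocks); MCSF 10 ng/ml final; 72 hrs, 37° C., 5% CO2; CellTiter-Glo read-out; n=3; EC50 fitted.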

Row | Structure (SMILES) | inhibition at 1 µM [1] | inhibition at 1 µM ([2]; HEK293H cells) | inhibition at 1 µM (kinase domain of PDGFRβ) | inhibition at 1 µM (kinase domain of cKIT) | inhibition at 1 µM ([3]; MNFS60 cells) | inhibition at 1 µM ([1]; compounds of Table 3) | inhibition at 1 µM ([2]; compounds of Table 3) | inhibition at 1 µM (kinase domain of PDGFRβ; compounds of Table 3) | inhibition at 1 µM (kinase domain of cKIT; compounds of Table 3) | inhibition at 1 µM ([3]; compounds of Table 3) | also measured
1 | CNC(=O)c1cc(Oc2ccc3nc(N[C@H](C)C4CCCCC4)oc3c2)ccn1 [Compound 54, 4-[2-((R)-1-Cyclohexyl-ethylamino)-benzooxazol-6-yloxy]-pyridine-2-carboxylic acid methylamide] | 100% | 60% | 7% | 17% | 64% | – | – | – | – | – | –
2 | CNC(=O)c1cc(Oc2ccc3nc(Nc4ccccc4CCN4CCCCC4)oc3c2)ccn1 [Compound 44, 4-{2-[2-(2-Piperidin-1-yl-ethyl)-phenylamino]-benzooxazol-6-yloxy}-pyridine-2-carboxylic acid methylamide] | 37% | – | 15% | – | – | 100% | 99% | 98% | 87% | 100% | inhibition at 1 µM ([1]; compounds of Table 4): 100%; inhibition at 1 µM ([2]; compounds of Table 4): 53%; inhibition at 1 µM (kinase domain of PDGFRβ; compounds of Table 4): 24%; inhibition at 1 µM (kinase domain of cKIT; compounds of Table 4): 45%; inhibition at 1 µM ([3]; compounds of Table 4): 94%
3 | CNC(=O)c1cc(Oc2ccc3nc(NCc4c(F)cccc4OC)sc3c2)ccn1 [Example 223, 4-(2-(2-fluoro-6-methoxybenzylamino)benzo[d]thiazol-6-yloxy)-N-methylpicolinamide] | – | – | – | – | – | 100% | 97% | 28% | 54% | 100% | –
4 | c1ccc2c(Oc3ccc4nc(NC5CCCCC5)sc4c3)ccnc2c1 [Example 256, N-cyclohexyl-6-(quinolin-4-yloxy)benzo[d]thiazol-2-amine] | – | – | – | – | – | 100% | 87% | 3% | 71% | 87% | –
5 | CNC(=O)c1cc(Oc2ccc3nc(NCc4ccccc4OC)sc3c2)ccn1 [Compound 132, 4-[2-(2-Methoxy-benzylamino)-benzothiazol-6-yloxy]-pyridine-2-carboxylic acid methylamide] | 99% | 98% | 58% | 98% | 100% | – | – | – | – | – | –
6 | CNC(=O)c1cc(Oc2ccc3nc(N[C@H]4CCCN(S(=O)(=O)C5CC5)C4)sc3c2)ccn1 [Example 367, (S)-4-(2-(1-(cyclopropylsulfonyl)piperidin-3-ylamino)benzo[d]thiazol-6-yloxy)-N-methylpicolinamide] | 100% | 89% | 7% | 13% | – | – | – | – | – | – | inhibition at 1 µM ([3]; MCSF dependent MNFS60 cells): 81%
7 | CCc1nc(-c2cc(Oc3ccc4nc(N[C@@H](C)C5CCCCC5)sc4c3)ccn2)[nH]c1C [Example 270, (S)-N-(1-cyclohexylethyl)-6-(2-(4-ethyl-5-methyl-1H-imidazol-2-yl)pyridin-4-yloxy)benzo[d]thiazol-2-amine] | – | – | – | – | – | 98% | 74% | 11% | 21% | 50% | –
8 | CNC(=O)c1cc(Oc2ccc3nc(NCc4ccccc4-n4cccn4)sc3c2)ccn1 [Compound 143, 4-[2-(2-Pyrazol-1-yl-benzyl-amino)-benzothiazol-6-yloxy]-pyridine-2-carboxylic acid methylamide] | 99% | 91% | 4% | 33% | 97% | – | – | – | – | – | –
9 | C[C@H](Nc1nc2ccc(Oc3ccnc(-c4cnc5[nH]ccc5c4)c3)cc2s1)C1CCCCC1 [Example 278, (S)-6-(2-(1H-pyrrolo[2,3-b]pyridin-5-yl)pyridin-4-yloxy)-N-(1-cyclohexylethyl)benzo[d] thiazol-2-amine] | – | – | – | – | – | 100% | 75% | 12% | 38% | 82% | –
10 | CNC(=O)c1cc(Oc2ccc3nc(NCC4CCCCCC4)oc3c2)ccn1 [Compound 101, 4-[2-(Cycloheptylmethyl-amino)-benzooxazol-6-yloxy]-pyridine-2-carboxylic acid methylamide] | 99% | 91% | 91% | 85% | 85% | – | – | – | – | – | –
11 | CNC(=O)c1cc(Oc2ccc3nc(NC4CCCC(C)C4)sc3c2)ccn1 (centres unmarked) [Compound 136, 4-[2-(3-Methyl-cyclohexyl-amino)-benzothiazol-6-yloxy]-pyridine-2-carboxylic acid methylamide] | 100% | 97% | 84% | 88% | 100% | – | – | – | – | – | –
12 | CNC(=O)c1cc(Oc2ccc3nc(NCc4ccccc4Cl)sc3c2)ccn1 [Compound 127, 4-[2-(2-Chloro-benzylamino)-benzothiazol-6-yloxy]-pyridine-2-carboxylic acid methylamide] | 100% | 95% | 20% | 81% | 95% | – | – | – | – | – | –
13 | C[C@H](Nc1nc2ccc(Oc3ccnc(-c4ccc(N)nc4)c3)cc2s1)C1CCCCC1 [Example 276, (S)-6-(6'-amino-2,3'-bipyridin-4-yloxy)-N-(1-cyclohexylethyl)benzo[d] thiazol-2-amine] | – | – | – | – | – | 100% | 97% | 26% | 39% | 100% | –
14 | CNC(=O)c1cc(Oc2ccc3nc(NCc4c(F)cccc4F)sc3c2)ccn1 [Compound 149, 4-[2-(2,6-Difluoro-benzylamino)-benzothiazol-6-yloxy]-pyridine-2-carboxylic acid methylamide] | 99% | 92% | 0% | 4% | 67% | – | – | – | – | – | –
15 | CNC(=O)c1cc(Oc2ccc3nc(NCc4ccccc4OC)oc3c2)ccn1 [Compound 17, 4-[2-(2-Methoxy-benzylamino)-benzooxazol-6-yloxy]-pyridine-2-carboxylic acid methylamide] | 100% | 94% | 10% | 85% | 81% | – | – | – | – | – | –
16 | CCCc1nc(-c2cc(Oc3ccc4nc(N[C@@H]5CCCC[C@H]5O)sc4c3)ccn2)[nH]c1C [Example 267, (1R,2R)-2-(6-(2-(5-methyl-4-propyl-1H-imidazol-2-yl)pyridin-4-yloxy)benzo[d]thiazol-2-ylamino)cyclohexanol] | – | – | – | – | – | 100% | 96% | 26% | 16% | 100% | –
17 | Cc1nc(-c2cc(Oc3ccc4nc(N[C@@H](C)C5CCCCC5)sc4c3)ccn2)[nH]c1C [Example 269, (S)-N-(1-cyclohexylethyl)-6-(2-(4,5-dimethyl-1H-imidazol-2-yl)pyridin-4-yloxy)benzo[d]thiazol-2-amine] | – | – | – | – | – | 100% | 85% | 13% | 18% | 75% | –
